Molecules are shown by their SMILES.

As a reminder, the inhibition is the change of the read-out against control, counted positive when it falls.

For one assay, the system named is HBV polymerase. The experiment in a line: Inhibitory effect on the in vitro activities of HBV polymerase in reverse transcription (ELISA-type). The assay is classed as biochemical. The text has this:
The present inventors submitted application for a patent concerning HBV polymerase genetically expressed in and separated from E. coli, the process of its preparation, and the method to measure the enzyme activities (KR 94-3918, KR 96-33998). In the present experiments HBV polymerase was used which had been expressed in E. coli as stated above.
The method used in the present invention to measure in vitro reverse transcribing activities of HBV polymerase is as follows. Basic principles are the same as those for ELISA, nucleotides with biotin- or digoxigenin- group are included as substrates and anti-DIG antibodies attached to peroxidase enzyme recognize the polymerized substrates.
To the wells coated with streptavidin, 20 μl of HBV polymerase, 20 μl of reaction mixture (10 μM each of DIG-UTP and Biotin-UTP, 46 mM Tris-HCl, 266 mM KCl, 27.5 mM MgCl2, 9.2 mM DTT substrate/primer hybrid), and 20 μl of test compound (added to […]) were added and allowed to react at 22° C. for 15 hrs. During this reaction, HBV polymerase catalyzes DNA synthesis, and digoxigenin and biotin attached to nucleotides form bonds to streptavidin coated on the bottom of wells. When the reaction was done, each well was washed with 250 μl of cleaning buffer (pH 7.0) for 30 seconds, which was repeated five times to remove remaining impurities. 200 μl of anti-DIG-POD antibody was added to each well and allowed to react for 1 hr at 37° C., and the wells were washed with cleaning buffer to remove impurities. 200 μl each of ABTS™, a substrate of peroxidase, was then added and allowed to react at room temperature for 30 min. Absorbancy was measured at 405 nm using ELISA reader.
The inhibitory effects in HBV polymerase activities for reverse transcription were calculated using the group without test compound as a control and the results are shown in Table 1 as follows.
A general note: In an ELISA, binding on a coated surface is turned into a signal by an enzyme label.

Assay [1] addresses T1, HIV reverse transcriptase (Human immunodeficiency virus type 1 group M subtype B, UniProt P04585).
T1 construct: purchased Boehringer Mannheim
The experiment in a line: Inhibitory effect on the in vitro HIV reverse transcriptase activity (non-radioactive RT assay kit). The assay is classed as biochemical. Particulars: for inhibition at 0.1 µg/mL: 0.1 μg/ml; for inhibition at 1 µg/mL: 1 μg/ml. On the procedure:
Non-radioactive reverse transcriptase assay kit (Boehringer Mannheim) was used in the measurement of in vitro transcriptase activities. 20 μl (40 ng) of HIV reverse transcriptase and 20 μl of reaction mixture containing matrix-primer hybrid poly(A)oligo(dT)15, DIG(digoxigenin)-dUTP, biotin-dUTP, dTTP were added to wells coated with streptavidin, and the test compounds prepared were also added at the final concentrations of 0.1 and 1 μ/ml and allowed to react at 37° C. for 1 hr. At this time, DNA is formed from RNA by the action of HIV reverse transcriptase, forming bonds with streptavidin coated on the bottom of wells through digoxigenin and biotin moieties attached to nucleotides.
When the reaction was completed, each well was washed with 250 μl of washing buffer (pH 7.0) for 30 sec. five times to remove remaining impurities. 200 μl of anti-DIG-POD […] was added to each well, then the mixture was allowed to react at 37° C. for 1 hr and washed as above to remove impurities. 200 μl of ABTS™, a substrate for peroxidase, was added to each well and the mixture was allowed to react at room temperature for 30 min. Absorbance at 405 nm was measured for each solution using ELISA reader to determine the inhibitory effect on the HIV reverse transcriptase activities. The percentage of inhibition in the activity of HIV reverse transcriptase was calculated using the group without test compound as control and the results are represented in Table 3.

Turning to `Cc1ccc(C(=O)NN2CCOCC2)c(Nc2ccc3[nH]ncc3c2)n1` [Example 2, 2-(1H-5-indazolylamino)-6-methyl-N-(4-morpholinyl)nicotinamide], the “Inhibitory activity on HBV-RT (%)” value in the assay with HBV polymerase (0.01 μg/ml) amounted to 42%; in the assay with HBV polymerase (0.1 μg/ml), 57%; in the assay with HBV polymerase (1 μg/ml), 88%. In addition, the inhibition at 0.1 µg/mL in assay [1] was 49%. Moreover, the inhibition at 1 µg/mL in assay [1] was determined as 84%.

With `Cc1ccc(C(=O)NC(C)C)c(Nc2ccc3cn[nH]c3c2)n1` [Example 8, 2-(1H-6-indazolylamino)-N-isopropyl-6-methylnicotinamide], the “Inhibitory activity on HBV-RT (%)” value in the assay with HBV polymerase (0.01 μg/ml) worked out at 23%; with HBV polymerase (0.1 μg/ml), 54%; in the assay with HBV polymerase (1 μg/ml) it was 78%. In addition, the inhibition at 0.1 µg/mL in assay [1] turned out to be 28%. In assay [1], the inhibition at 1 µg/mL was found to be 65%.

Regarding `Cc1ccc(C(=O)N[C@H]2CC[C@H](O)CC2)c(Nc2ccc3[nH]ncc3c2)n1` [Example 3, N-(Trans-4-hydroxy-1-cyclohexyl)-2-(1H-5-indazolylamino)-6-methylnicotinamide], the “Inhibitory activity on HBV-RT (%)” value amounted to 53% in the assay with HBV polymerase (0.01 μg/ml), 61% in the assay with HBV polymerase (0.1 μg/ml) and 80% with HBV polymerase (1 μg/ml). In addition, the inhibition at 0.1 µg/mL in assay [1] stood at 51%. Moreover, the inhibition at 1 µg/mL in assay [1] was 80%.

For `Cc1ccc(C(=O)N(N)c2ccccn2)c(Nc2ccc3cn[nH]c3c2)n1` [Example 21, 2-(1H-6-indazolylamino)-6-methyl-N-(2-pyridyl)-3-pyridinecarbohydrazide], the figures for the “Inhibitory activity on HBV-RT (%)” value in the assay with HBV polymerase (0.01 μg/ml), in the assay with HBV polymerase (0.1 μg/ml) and in the assay with HBV polymerase (1 μg/ml) were 30%, 50% and 86%, respectively. For the same compound, in assay [1], the inhibition at 0.1 µg/mL is 49%. The inhibition at 1 µg/mL in assay [1] came to 75%.

Turning to `Cc1ccc(C(=O)NCCN2CCCCC2)c(Nc2ccc3cn[nH]c3c2)n1` [Example 15, 2-(1H-6-indazolylamino)-6-methyl-N-[2-(1-piperidinyl)ethyl]nicotinamide], the “Inhibitory activity on HBV-RT (%)” value was 12% in the assay with HBV polymerase (0.01 μg/ml), 57% in the assay on HBV polymerase (0.1 μg/ml) and 87% with HBV polymerase (1 μg/ml). The inhibition at 0.1 µg/mL in assay [1] was 43%. Also, in assay [1], the inhibition at 1 µg/mL stood at 78%.

With `Cc1ccc(C(=O)NCCc2ccccn2)c(Nc2ccc3[nH]ncc3c2)n1` [Example 6, 2-(1H-5-indazolylamino)-6-methyl-N-(2-pyridylethyl)nicotinamide], the “Inhibitory activity on HBV-RT (%)” value in the assay on HBV polymerase (0.01 μg/ml) was found to be 40%; with HBV polymerase (0.1 μg/ml), 55%; in the assay on HBV polymerase (1 μg/ml), 84%. Moreover, the inhibition at 0.1 µg/mL in assay [1] was determined as 45%. Moreover, the inhibition at 1 µg/mL in assay [1] was found to be 77%.

As to `Cc1ccc(C(=O)NC(C)C)c(Nc2ccc3[nH]ncc3c2)n1` [Example 1, 2-(1H-5-indazolylamino)-N-isopropyl-6-methylnicotinamide], the “Inhibitory activity on HBV-RT (%)” value in the assay with HBV polymerase (0.01 μg/ml) is listed as 30%; in the assay on HBV polymerase (0.1 μg/ml), 49%; in the assay with HBV polymerase (1 μg/ml), 78%. For the same compound, in assay [1], the inhibition at 0.1 µg/mL was determined as 42%. The inhibition at 1 µg/mL in assay [1] was found to be 75%.

Turning to `Cc1ccc(C(=O)NCCCn2ccnc2)c(Nc2ccc3cn[nH]c3c2)n1` [Example 20, N-[3-(1H-1-imidazolyl)propyl]-2-(1H-6-indazolylamino)-6-methylnicotinamide], the “Inhibitory activity on HBV-RT (%)” value with HBV polymerase (0.01 μg/ml) was found to be 47%; with HBV polymerase (0.1 μg/ml), 59%; with HBV polymerase (1 μg/ml), 88%. In addition, the inhibition at 0.1 µg/mL in assay [1] worked out at 47%. Also, in assay [1], the inhibition at 1 µg/mL was found to be 88%.

Take `Cc1ccc(C(=O)NCc2cccnc2)c(Nc2ccc3[nH]ncc3c2)n1` [Example 5, 2-(1H-5-indazolylamino)-6-methyl-N-(3-pyridylmethyl)nicotinamide]: the entries for the “Inhibitory activity on HBV-RT (%)” value in the assay with HBV polymerase (0.01 μg/ml), in the assay with HBV polymerase (0.1 μg/ml) and in the assay with HBV polymerase (1 μg/ml) were 37%, 43% and 65%, respectively. In assay [1], the inhibition at 0.1 µg/mL turned out to be 38%. Also, in assay [1], the inhibition at 1 µg/mL is 69%.

As to `Cc1ccc(C(=O)NCCN2CCOCC2)c(Nc2ccc3cn[nH]c3c2)n1` [Example 14, 2-(1H-6-indazolylamino)-6-methyl-N-[2-(4-morpholinyl)ethyl]nicotinamide], the “Inhibitory activity on HBV-RT (%)” value with HBV polymerase (0.01 μg/ml) amounted to 52%; in the assay on HBV polymerase (0.1 μg/ml) it was 68%; with HBV polymerase (1 μg/ml) it was 91%. Also, the inhibition at 0.1 µg/mL in assay [1] stood at 41%. The inhibition at 1 µg/mL in assay [1] was determined as 70%.

On to `Cc1ccc(C(=O)NN2CCN(C)CC2)c(Nc2ccc3cn[nH]c3c2)n1` [Example 17, 2-(1H-6-indazolylamino)-6-methyl-N-(4-methyl-1-piperazinyl)nicotinamide], for which the results for the “Inhibitory activity on HBV-RT (%)” value with HBV polymerase (0.01 μg/ml), in the assay on HBV polymerase (0.1 μg/ml) and in the assay on HBV polymerase (1 μg/ml) were 24%, 56% and 86%, respectively. Also, in assay [1], the inhibition at 0.1 µg/mL was 50%. Also, in assay [1], the inhibition at 1 µg/mL stood at 84%.

For `Cc1ccc(C(=O)Nc2cccnc2)c(Nc2ccc3[nH]ncc3c2)n1` [Example 4, 2-(1H-5-indazolylamino)-6-methyl-N-(3-pyridyl)nicotinamide], the entries for the “Inhibitory activity on HBV-RT (%)” value in the assay with HBV polymerase (0.01 μg/ml), in the assay on HBV polymerase (0.1 μg/ml) and with HBV polymerase (1 μg/ml) were 50%, 64% and 92%, respectively. The inhibition at 0.1 µg/mL in assay [1] stood at 40%. The inhibition at 1 µg/mL in assay [1] amounted to 64%.

On to `Cc1ccc(C(=O)NC2CC2)c(Nc2ccc3cn[nH]c3c2)n1` [Example 11, N-cyclopropyl-2-(1H-6-indazolylamino)-6-methylnicotinamide], for which the results for the “Inhibitory activity on HBV-RT (%)” value in the assay with HBV polymerase (0.01 μg/ml), with HBV polymerase (0.1 μg/ml) and in the assay with HBV polymerase (1 μg/ml) were 32%, 54% and 84%, respectively. The inhibition at 0.1 µg/mL in assay [1] is 45%. Moreover, in assay [1], the inhibition at 1 µg/mL was determined as 82%.
